These results are taken from patent US10364226B2, “Pyridazinone compounds and uses thereof” (priority 2013, dated 2019).

Test [1] concerns Influenza strain A549 A/WSN/33 (H1N1). The experiment in a line: Influenza Antiviral Assay. In kind it is cell-based, Influenza A virus. Conditions: Influenza A virus, A549, 20 h, neuraminidase fluorescence readout, read-out: % Inhibition.
A further test has as its target EN PA (Influenza A virus, UniProt P15659). Description: EN PA FRET Inhibition Assay. The format is biochemical. The following applies: read-out: Potency.

In the case of `CC(C)(CO)NC(=O)c1nn(CC2(n3cc(Cl)c4cccnc43)CCCC2)cc(O)c1=O` [Compound 866], the EC50 in test [1] is below 20 µM. Also, at EN PA, the IC50 is below 0.1 µM.

Regarding `CC(C)(CO)NC(=O)c1nn(CC2(n3ccc4cccnc43)CCCC2)cc(O)c1=O` [Compound 867], the EC50 in test [1] was below 20 µM. For the same molecule, the IC50 on EN PA was below 0.1 µM.

Turning to `Cc1cn(C2(Cn3cc(O)c(=O)c(C(=O)NC(C)(C)CN)n3)CCCC2)c2ccccc12` [Compound 868], the EC50 in test [1] is below 20 µM. Further, the IC50 at EN PA is below 0.1 µM.

Turning to `Cc1cn(C2(Cn3cc(O)c(=O)c(C(=O)NCC(C)(C)CNC(=O)OC(C)(C)C)n3)CCCC2)c2ncccc12` [Compound 869], the EC50 in test [1] is below 20 µM. In addition, the IC50 on EN PA is 0.1 to 1 µM.

With `Cc1cn(C2(Cn3cc(O)c(=O)c(C(=O)NCC(C)(C)CN)n3)CCCC2)c2ncccc12` [Compound 870], in test [1], the EC50 fell in the range of 20 to 100 µM. For the same molecule, the IC50 at EN PA was below 0.1 µM.

For the molecule `CNC(=O)c1nn(CC2(c3cccc4[nH]ncc34)CCCC2)cc(O)c1=O` [Compound 871], the EC50 in test [1] is above 100 µM. Also, the IC50 on EN PA is below 0.1 µM.

As to `CNC(=O)c1nn(CC2(n3ccc4cc(C)cnc43)CCCC2)cc(O)c1=O` [Compound 872], the EC50 in test [1] is below 20 µM. Moreover, on EN PA, the IC50 is below 0.1 µM.

Turning to `O=C1NCCCCCOc2ccc(cc2)C2(CCCC2)Cn2cc(O)c(=O)c1n2` [Compound 873], the EC50 in test [1] was above 100 µM. Besides, the IC50 on EN PA lay within 0.1 to 1 µM.

For `CCOC(=O)[C@H]1[C@@H]2CC(Cn3cc(O)c(=O)c(C(=O)NC)n3)(n3cc(C)c4cccnc43)C[C@@H]21` (stereo partly drawn) [Compound 874], the EC50 in test [1] is above 100 µM. Further, on EN PA, the IC50 is 0.1 to 1 µM.

Turning to `C#Cc1cn(C2(Cn3cc(O)c(=O)c(C(=O)NC)n3)CCCC2)c2ncc(C)cc12` [Compound 875], the EC50 in test [1] is below 20 µM. In addition, the IC50 on EN PA is below 0.1 µM.

As to `Cc1cn(C2(Cn3cc(O)c(=O)c(C(=O)NCCNC(=O)OC(C)(C)C)n3)CCCC2)c2ncccc12` [Compound 876], the EC50 in test [1] is below 20 µM. In addition, the IC50 at EN PA is below 0.1 µM.

Turning to `Cc1cn(C2(Cn3cc(O)c(=O)c(C(=O)N4CCOCC4)n3)CCCC2)c2ncccc12` [Compound 877], in test [1], the EC50 was above 100 µM. Also, the IC50 on EN PA is 0.1 to 1 µM.

In the case of `CNC(=O)c1nn(CC2(c3ccc4cc(C)ccc4c3)CCCC2)cc(O)c1=O` [Compound 879], in test [1], the EC50 is below 20 µM. The IC50 at EN PA was below 0.1 µM.

As for `CNC(=O)c1nn(CC2(n3cc(C(=O)NC)c4cccnc43)CCCC2)cc(O)c1=O` [Compound 880], the EC50 in test [1] is above 100 µM. Besides, the IC50 on EN PA is below 0.1 µM.

With `CNC(=O)c1nn(CC2(c3cccc4c3cnn4C)CCCC2)cc(O)c1=O` [Compound 881], the EC50 in test [1] was below 20 µM. Besides, on EN PA, the IC50 is below 0.1 µM.

For the molecule `CNC(=O)c1nn(CC2(c3cccc4nn(C)cc34)CCCC2)cc(O)c1=O` [Compound 882], the EC50 in test [1] was below 20 µM. Also, the IC50 at EN PA was below 0.1 µM.

As for `CNC(=O)c1nn(CC2(n3cc(C(N)=O)c4cccnc43)CCCC2)cc(O)c1=O` [Compound 883], the EC50 in test [1] is above 100 µM. Also, the IC50 on EN PA is below 0.1 µM.

Consider `CNC(=O)c1nn(CC2(N3c4ccccc4C=Cc4ccccc43)CCCC2)cc(O)c1=O` [Compound 884], for which the EC50 in test [1] was below 20 µM. Further, at EN PA, the IC50 is below 0.1 µM.

`CNC(=O)c1nn(CC2(n3cc(C)c4cccnc43)C[C@@H]3[C@@H](CO)[C@@H]3C2)cc(O)c1=O` (stereo partly drawn) [Compound 885]: the EC50 in test [1] was above 100 µM. Besides, the IC50 on EN PA was in the range of 0.1 to 1 µM.

As to `CNC(=O)c1nn(CC2(n3ccc4cc(OC)cnc43)CCCC2)cc(O)c1=O` [Compound 886], the EC50 in test [1] is below 20 µM. In addition, the IC50 at EN PA is below 0.1 µM.

Take `CNC(=O)c1nn(CC2(n3cc(Cl)c4cc(Cl)cnc43)CCCC2)cc(O)c1=O` [Compound 887]: in test [1], the EC50 was below 20 µM. For the same molecule, at EN PA, the IC50 was below 0.1 µM.

For `CNC(=O)c1nn(CC2(c3cc(C)c4cccnc4c3)CCCC2)cc(O)c1=O` [Compound 888], in test [1], the EC50 was below 20 µM. The IC50 on EN PA was below 0.1 µM.

With `CNC(=O)c1nn(CC2(c3cc(C)cc4ncccc34)CCCC2)cc(O)c1=O` [Compound 889], the EC50 in test [1] was below 20 µM. In addition, the IC50 on EN PA is below 0.1 µM.

`CNC(=O)c1nn(CC2(c3ccc4cc(C)cnc4c3)CCCC2)cc(O)c1=O` [Compound 890]: in test [1], the EC50 was below 20 µM. The IC50 on EN PA is below 0.1 µM.

As to `CNC(=O)c1nn(CC2(n3c4c(c5ccccc53)CCC4)CCCC2)cc(O)c1=O` [Compound 891], the EC50 in test [1] was below 20 µM. In addition, on EN PA, the IC50 was below 0.1 µM.

As for `CNC(=O)c1nn(CC2(n3cc(OC)c4cccnc43)CCCC2)cc(O)c1=O` [Compound 892], the EC50 in test [1] is below 20 µM. In addition, the IC50 at EN PA is below 0.1 µM.

In the case of `CNC(=O)c1nn(CC2(c3cc4ccccc4cc3Cl)CCCC2)cc(O)c1=O` [Compound 893], the EC50 in test [1] is below 20 µM. In addition, on EN PA, the IC50 is below 0.1 µM.

Regarding `CNC(=O)c1nn(CC2(n3cc(C(C)=O)c4cc(C)cnc43)CCCC2)cc(O)c1=O` [Compound 894], the EC50 in test [1] was below 20 µM. Besides, the IC50 at EN PA was below 0.1 µM.

Regarding `O=C1NCCCCCOc2cccc(c2)C2(CCCC2)Cn2cc(O)c(=O)c1n2` [Compound 895], the EC50 in test [1] was below 20 µM. In addition, on EN PA, the IC50 is below 0.1 µM.

As to `CNC(=O)c1nn(CC2(n3c4ccccc4c4ccccc43)CCCC2)cc(O)c1=O` [Compound 896], the EC50 in test [1] was below 20 µM. For the same molecule, the IC50 on EN PA is below 0.1 µM.

Take `CNC(=O)c1nn(CC2(c3ccc4c(C)cccc4c3)CCCC2)cc(O)c1=O` [Compound 897]: in test [1], the EC50 was below 20 µM. The IC50 on EN PA is below 0.1 µM.

Regarding `CNC(=O)c1nn(CC2(n3cc(C)c4cc(Cl)ccc43)CCCC2)cc(O)c1=O` [Compound 898], the EC50 in test [1] is below 20 µM. Also, at EN PA, the IC50 was below 0.1 µM.

Regarding `CNC(=O)c1nn(CC2(n3cc(Cl)c4cc(Cl)ccc43)CCCC2)cc(O)c1=O` [Compound 899], the EC50 in test [1] is below 20 µM. The IC50 at EN PA was below 0.1 µM.
